{
  "source": "patent US9476064B2",
  "about": "“Neuro-progenitor produced from an SCNT-derived ES cell” (H. Bion Co., Ltd., priority 2003, dated 2016)",
  "test_system": "nucleus-transferred oocytes",
  "assay": "Development of nucleus-transferred oocytes after reprogramming and chemical activation",
  "format": "cell-based, human",
  "details": "then 2.0 mM 6-DMAP, reprogramming time 2 hour, G1.2 then SNUnt-2, 16 oocytes",
  "excerpt": "Since a sperm-mediated activation, which is one of the major factors for a normal embryonic development, was absent in case of the nucleus-transferred oocyte obtained in Example 2, an artificial stimulus was needed instead. In order to determine the optimum conditions for artificial embryogenesis, therefore, nucleus-transferred oocytes were reprogrammed, activated and in vitro cultured under various conditions as shown in Tables 2 to 4.\nSuch nucleus-transferred oocytes were washed several times with the G1.2 medium, transferred to the G1.2 medium containing 2.0 mM 6-DMAP (Sigma Co., St. Louis, Mo., U.S.A.) and, then, cultured at 37° C., 5% CO2, 5% O2 and 90% N2 for 4 hours. After these activation steps, the nucleus-transferred oocytes were in vitro cultured under the same condition.",
  "data": [
    {"compound": "C[C@H](CCC(=O)O)C[C@H](C)C[C@H](C)C(=O)/C=C(\\O)[C@H](C)C[C@H](C)C/C=C/[C@@H](C)[C@@H](O)[C@@H](C)[C@@H](O)C[C@@H]1CC[C@@](C)([C@H]2CC[C@@](C)([C@@H](C)O)O2)O1", "note": "[ionomycin]", "values": [
      {"measurement": "No. of nucleus-transferred oocytes developed to 2-cell stage", "setting": "5 μM", "value": 9},
      {"measurement": "No. of nucleus-transferred oocytes developed to blastocyst", "setting": "5 μM", "value": 0},
      {"measurement": "No. of nucleus-transferred oocytes developed to morula", "setting": "5 μM", "value": 0},
      {"measurement": "No. of nucleus-transferred oocytes developed to 2-cell stage", "setting": "10 μM", "value": 12},
      {"measurement": "No. of nucleus-transferred oocytes developed to blastocyst", "setting": "10 μM", "value": 0},
      {"measurement": "No. of nucleus-transferred oocytes developed to morula", "setting": "10 μM", "value": 0}
    ]}
  ]
}
